The results in this text go back to patent US10392347B2, “2,4-dihydroxy-nicotinamides as APJ agonists” (BRISTOL-MYERS SQUIBB COMPANY, priority 2015, dated 2019).

The structures appear in SMILES notation.

The target of one assay is T1, human APJ receptor (Homo sapiens, UniProt P35414).
T1 construct: expressed in transfected cells
T1 sequence (P35414 1-380): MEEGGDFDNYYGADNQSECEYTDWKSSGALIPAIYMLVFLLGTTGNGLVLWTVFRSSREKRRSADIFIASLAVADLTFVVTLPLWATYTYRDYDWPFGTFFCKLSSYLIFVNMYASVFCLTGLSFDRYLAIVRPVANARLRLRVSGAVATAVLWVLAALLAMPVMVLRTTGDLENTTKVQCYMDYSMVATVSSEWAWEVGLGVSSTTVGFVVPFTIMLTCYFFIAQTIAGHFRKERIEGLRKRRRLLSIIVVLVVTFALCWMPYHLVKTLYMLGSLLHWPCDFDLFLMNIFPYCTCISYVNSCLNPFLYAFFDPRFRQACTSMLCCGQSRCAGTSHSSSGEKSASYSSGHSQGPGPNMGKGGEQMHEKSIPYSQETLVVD
In words: Intracellular cAMP accumulation assay (APJ hcAMP, HTRF). The assay is classed as cell-based. Conditions: HEK293 cells stably expressing human APJ; read-out: Human APJ cAMP EC50 Potency range. The method, then: Intracellular cAMP Accumulation Assay
HEK293 cells stably expressing human APJ receptor were used to assess the activity of compounds. Cultured cells were detached and resuspended in the cAMP Homogeneous Time-Resolved Fluorescence (HTRF) assay buffer (Cisbio cat; #62AM4PEJ). […] Serial dilutions of a compound together with assay buffer containing […] and 2 μM forskolin were added to each well containing 5,000 cells and incubated for 30 minutes at room temperature. Subsequently, cAMP D2 reagent was added in the lysis buffer followed by the EuK antibody (Cisbio; cat #62AM4PEJ) and incubated for 60 min. The fluorescence emission ratio was measured using fluorometer. The intracellular cAMP concentrations (compound-stimulated inhibition of forskolin-mediated cAMP production) were calculated by extrapolation from a standard curve using known cAMP concentrations. The EC50 values were obtained by fitting the data to a sigmoidal concentration-response curve with variable slope.
The EC50 value of each compound is presented at the end of the example description.
The biological activity of the exemplified compounds of this invention determined by the assay described above is shown at the end of each example.
For `CCOCc1nc(O)c(C(=O)N2CC[C@H](c3ccccc3)C2)c(O)c1-c1c(OC)cc(F)cc1OC` [Example 70], the EC50 is 10 to 100 nM.

Staying with this assay, now noted: Table 1; HEK293 cells stably expressing human APJ, forskolin-stimulated cAMP; read-out: APJ cAMP EC50.
Consider `CCCCc1nc(O)c(C(=O)N2CCC(c3c[nH]cn3)CC2)c(O)c1-c1c(OC)cccc1OC` [Example 55, 6-butyl-5-(2,6-dimethoxyphenyl)-3-[4-(1H-imidazol-4-yl)piperidine-1-carbonyl]pyridine-2,4-diol], for which the EC50 lay within 10 to 100 nM. As to `CCCCc1nc(O)c(C(=O)N2CCN(c3ccccc3OC)CC2)c(O)c1-c1c(OC)cccc1OC` [Example 12, 6-butyl-5-(2,6-dimethoxyphenyl)-3-[4-(2-methoxyphenyl)piperazine-1-carbonyl]pyridine-2,4-diol], the EC50 lay within 0.01 to 10 nM. For `CCCCc1nc(O)c(C(=O)N2CCN(C(=O)c3cccc(F)c3)CC2)c(O)c1-c1c(OC)cccc1OC` [Example 42, 6-butyl-5-(2,6-dimethoxyphenyl)-3-[4-(3-fluorobenzoyl)piperazine-1-carbonyl]pyridine-2,4-diol], the EC50 is 0.01 to 10 nM.

For `CCCCc1nc(O)c(C(=O)N2CCN(c3ccc(OCCOC)cc3)CC2)c(O)c1-c1c(OC)cccc1OC` [Example 7, 6-butyl-5-(2,6-dimethoxyphenyl)-3-{4-[4-(2-methoxyethoxy)phenyl]piperazine-1-carbonyl}pyridine-2,4-diol], the EC50 was in the range of 100 to 300 nM.

`CCCCc1nc(O)c(C(=O)N2CCC(c3nc4ccccc4s3)CC2)c(O)c1-c1c(OC)cccc1OC` [Example 48, 3-[4-(1,3-benzothiazol-2-yl)piperidine-1-carbonyl]-6-butyl-5-(2,6-dimethoxyphenyl)pyridine-2,4-diol]: the EC50 was 10 to 100 nM. In the case of `CCCCc1nc(O)c(C(=O)N2CCN(c3nccn3C)CC2)c(O)c1-c1c(OC)cccc1OC` [Example 3, 6-butyl-5-(2,6-dimethoxyphenyl)-3-[4-(1-methyl-1H-imidazol-2-yl)piperazine-1-carbonyl]pyridine-2,4-diol], the EC50 is 100 to 300 nM. Turning to `CCCCc1nc(O)c(C(=O)N2CCC3(CC2)CC(=O)Nc2ccccc23)c(O)c1-c1c(OC)cccc1OC` [Example 66, 1-[6-butyl-5-(2,6-dimethoxyphenyl)-2,4-dihydroxypyridine-3-carbonyl]-2′,3′-dihydro-1′H-spiro[piperidine-4,4′-quinoline]-2′-one], the EC50 lay in the range of 10 to 100 nM. For the compound `CCCCc1nc(O)c(C(=O)N2CCN(Cc3ccc(Cl)cc3)CC2)c(O)c1-c1c(OC)cccc1OC` [Example 31, 6-butyl-3-{4-[(4-chlorophenyl)methyl]piperazine-1-carbonyl}-5-(2,6-dimethoxyphenyl)pyridine-2,4-diol], the EC50 fell in the range of 0.01 to 10 nM. On the same count and under the same terms, to `CCCCc1nc(O)c(C(=O)N2CCN(c3ccc(Cl)cn3)CC2)c(O)c1-c1c(OC)cccc1OC` [Example 6, 6-butyl-3-[4-(5-chloropyridin-2-yl)piperazine-1-carbonyl]-5-(2,6-dimethoxyphenyl)pyridine-2,4-diol] belongs 10 to 100 nM; to `CCCCc1nc(O)c(C(=O)N2CCN(Cc3ccc(F)cc3)CC2)c(O)c1-c1c(OC)cccc1OC` [Example 43, 6-butyl-5-(2,6-dimethoxyphenyl)-3-{4-[(4-fluorophenyl)methyl]piperazine-1-carbonyl}pyridine-2.4-diol], 0.01 to 10 nM.

Staying with this assay, now noted: Table 3; HEK293 cells stably expressing human APJ, forskolin-stimulated cAMP; read-out: APJ cAMP EC50.
In the case of `CCCCc1nc(O)c(C(=O)N2CCC(c3ncccc3F)C2)c(O)c1-c1c(OC)cccc1OC` (stereo not drawn) [Example 78, 6-butyl-5-(2,6-dimethoxyphenyl)-3-[3-(3-fluoropyridin-2-yl)pyrrolidine-1-carbonyl]pyridine-2,4-diol], the EC50 was 0.01 to 10 nM.

Still in this assay, the particulars now being: Table 4; HEK293 cells stably expressing human APJ, forskolin-stimulated cAMP; read-out: Human cAMP EC50.
`CCCCc1nc(O)c(C(=O)N2CCN(Cc3cccc(Cl)c3Cl)CC2)c(O)c1-c1cc(OC)ccc1OC` [Example 103, 6-butyl-3-{4-[(2,3-dichlorophenyl)methyl]piperazine-1-carbonyl}-5-(2,5-dimethoxyphenyl)pyridine-2,4-diol]: the EC50 was in the range of 0.01 to 10 nM. As to `CCOCc1nc(O)c(C(=O)N2CCN(Cc3ccccc3F)CC2)c(O)c1-c1c(OC)cccc1OC` [Example 89, 5-(2,6-dimethoxyphenyl)-6-(ethoxymethyl)-3-{4-[(2-fluorophenyl)methyl]piperazine-1-carbonyl}pyridine-2,4-diol], the EC50 lay in the range of 0.01 to 10 nM.

With `CCCCc1nc(O)c(C(=O)N2CCN(Cc3cccc(Cl)c3Cl)CC2)c(O)c1-c1cccc(OC)c1OC` [Example 112, 6-butyl-3-{4-[(2,3-dichlorophenyl)methyl]piperazine-1-carbonyl}-5-(2,3-dimethoxyphenyl)pyridine-2,4-diol], the EC50 is 0.01 to 10 nM.

For the compound `CCCCc1nc(O)c(C(=O)N2CC(NC(=O)c3ccccc3)C2)c(O)c1-c1c(OC)cccc1OC` [Example 98, N-{1-[6-butyl-5-(2,6-dimethoxyphenyl)-2,4-dihydroxypyridine-3-carbonyl]azetidin-3-yl}benzamide], the EC50 was in the range of 0.01 to 10 nM. Turning to `CCCCc1nc(O)c(C(=O)N(C)CCNC(=O)c2ccccc2)c(O)c1-c1c(OC)cccc1OC` [Example 95, N-(2-{1-[6-butyl-5-(2,6-dimethoxyphenyl)-2,4-dihydroxypyridin-3-yl]-N-methylformamido}ethyl)benzamide], the EC50 lay within 10 to 100 nM.

On to `CCCCc1nc(O)c(C(=O)N(C)CCNc2ncc(Cl)cc2F)c(O)c1-c1c(OC)cccc1OC` [Example 102, 6-butyl-N-{2-[(5-chloro-3-fluoropyridin-2-yl)amino]ethyl}-5-(2,6-dimethoxyphenyl)-2,4-dihydroxy-N-methylpyridine-3-carboxamide], for which the EC50 was in the range of 10 to 100 nM. Regarding `CCCCc1nc(O)c(C(=O)N2CCN(Cc3ncccc3F)CC2)c(O)c1-c1c(OC)cccc1OC` [Example 120, 6-butyl-5-(2,6-dimethoxyphenyl)-3-{4-[(3-fluoropyridin-2-yl)methyl]piperazine-1-carbonyl}pyridine-2,4-diol], the EC50 is 0.01 to 10 nM. `CCCCc1nc(O)c(C(=O)N2CC(NS(=O)(=O)c3cccc(F)c3F)C2)c(O)c1-c1c(OC)cccc1OC` [Example 118, N-{1-[6-butyl-5-(2,6-dimethoxyphenyl)-2,4-dihydroxypyridine-3-carbonyl]azetidin-3-yl}-2,3-difluorobenzene-1-sulfonamide]: the EC50 fell in the range of 0.01 to 10 nM.

Still in this assay, the particulars now being: Table 6; HEK293 cells stably expressing human APJ, forskolin-stimulated cAMP; read-out: Human cAMP EC50.
For the compound `CCOCc1nc(O)c(C(=O)N2CC[C@H](OCc3ccccc3)C2)c(O)c1-c1c(OC)cccc1OC` [Example 137, 3-[(3S)-3-(benzyloxy)pyrrolidine-1-carbonyl]-5-(2,6-dimethoxyphenyl)-6-(ethoxymethyl)pyridine-2,4-diol], the EC50 fell in the range of 10 to 100 nM. Consider `CCOCc1nc(O)c(C(=O)N2CCC(c3ccc(F)cc3F)C2)c(O)c1-c1c(OC)cccc1OC` (stereo not drawn) [Example 132, 3-[3-(2,4-difluorophenyl)pyrrolidine-1-carbonyl]-5-(2,6-dimethoxyphenyl)-6-(ethoxymethyl)-4-hydroxy-1,2-dihydropyridin-2-one], for which the EC50 was in the range of 0.01 to 10 nM.

The assay is the same for the next values; noted with them: Table 7; HEK293 cells stably expressing human APJ, forskolin-stimulated cAMP; read-out: Human cAMP EC50.
Consider `CCCCc1nc(O)c(C(=O)N2CCC(c3ncc(F)cc3F)C2)c(O)c1-c1cccc(CO)c1` (stereo not drawn) [Example 147, 6-butyl-3-[3-(3,5-difluoropyridin-2-yl)pyrrolidine-1-carbonyl]-5-[3-(hydroxymethyl)phenyl]pyridine-2,4-diol], for which the EC50 lay within 0.01 to 10 nM. On to `CCCCc1nc(O)c(C(=O)N2CCC(c3ncc(F)cc3F)C2)c(O)c1-c1cccc(C(C)C)c1` (stereo not drawn) [Example 141, 6-butyl-3-[3-(3,5-difluoropyridin-2-yl)pyrrolidine-1-carbonyl]-5-[3-(propan-2-yl)phenyl]pyridine-2,4-diol], for which the EC50 fell in the range of 0.01 to 10 nM.

As usually defined, the EC50 is the concentration giving half of the maximal effect.
